Entries after “also recorded” stand apart in the source; their conditions may differ.
Assays:
OCD-symptoms [1] = experiment: Case study: treatment of a patient with a severe form of OCD; format: in vivo, man; details: earlier treatment of the same patient(s) with anti-androgenic drugs, before the GnRH-analogue
Experimental: The GnRH-analogue triptorelin is available in a pharmaceutical preparation (Decapeptyl® Depot). In the use of this preparation, an injection is administered containing triptorelin embonate in a dose corresponding to 3.75 mg triptorelin. Injections with this dose are given intramuscularly. They should be repeated every fourth week from the first injection. […] A then person was referred to a psychiatric specialist clinic from another qualified psychiatrist for evaluation and treatment of a severe condition of OCD. […] The situation when the patient came to the clinic was that they had sickness pension since more than ten years. They lived alone in a small apartment which they hardly ever left. Obsessions and compulsive rituals occupied most of their time. They repeated against their will meaningless strings of words silently during several hours every day. They felt they had to read the newspaper according to certain ritual patterns; if they did anything wrong, they had to start again from the beginning. Sometimes, it took them the whole day to read the newspaper. […] Among other things, they placed their books so that the covers were strictly oriented along north-south lines. Their contacts with other persons were highly restraint and mainly limited to some relatives. […] The clinical diagnosis was that they suffered from a very serious form of OCD. […]

[2] = tested on: obsessive-compulsive neurosis (nowadays called obsessive-compulsive disorder, OCD); details: cited from earlier work
[3] = tested on: symptoms of androgenic hyperactivity; experiment: Case study: treatment of the patient's symptoms of androgenic hyperactivity; format: in vivo, man; details: same patient, before triptorelin
Experimental: An endocrinological investigation was performed, based upon their symptoms of androgenic hyperactivity.

OCD-symptoms [4] = experiment: Case study: treatment of a patient with a severe form of OCD; format: in vivo, man
Experimental: The GnRH-analogue triptorelin is available in a pharmaceutical preparation (Decapeptyl® Depot). In the use of this preparation, an injection is administered containing triptorelin embonate in a dose corresponding to 3.75 mg triptorelin. Injections with this dose are given intramuscularly. They should be repeated every fourth week from the first injection.
A detailed case study of the treatment of a patient with a severe form of OCD is disclosed in the following, as supporting evidence of the effect of the method.
A then person was referred to a psychiatric specialist clinic from another qualified psychiatrist for evaluation and treatment of a severe condition of OCD.
The situation when the patient came to the clinic was that they had sickness pension since more than ten years. They lived alone in a small apartment which they hardly ever left. Obsessions and compulsive rituals occupied most of their time. They repeated against their will meaningless strings of words silently during several hours every day. They felt they had to read the newspaper according to certain ritual patterns; if they did anything wrong, they had to start again from the beginning. Sometimes, it took them the whole day to read the newspaper. […] Among other things, they placed their books so that the covers were strictly oriented along north-south lines. Their contacts with other persons were highly restraint and mainly limited to some relatives.
The clinical diagnosis was that they suffered from a very serious form of OCD. They were also found to be intelligent without any signs of any other mental illness or personality disorder. Thus, it was a clearly defined case of OCD.
During long periods of time the patient had been treated with the drugs which presently are considered to have the best effect against OCD. In the treatment of the patient they had also been given supportive psychotherapy.
In order to overcome this, treatment with the long-acting GnRH-analogue triptorelin (Decapeptyl® Depot) was given every fourth week as deep intramuscular depot injections with a dose corresponding to 3.75 mg triptorelin in each injection.

[5] = after another two months (four months in all), 3.75 mg intramuscular every fourth week

Molecule	effect on OCD (OCD-symptoms [1])	effect in treatment of obsessive-compulsive neurosis ([2]; a few patients, Casas et al. 1986)	effect on OCD ([2]; later investigations by other researchers)	effect on symptoms of androgenic hyperactivity [3]	effect on OCD-symptoms (OCD-symptoms [4]; [5])	obsessive thoughts (OCD-symptoms [4]; [5])	recovery from very severe form of OCD (OCD-symptoms [4]; after three months of treatment)	effect on OCD-symptoms (OCD-symptoms [4]; after two months treatment, 3.75 mg intramuscular every fourth week)	effect on OCD-symptoms (OCD-symptoms [4]; initially during treatment, 3.75 mg triptorelin deep intramuscular depot injection every fourth week)
CC(=O)O[C@]1(C(C)=O)CC[C@H]2[C@@H]3C=C(Cl)C4=CC(=O)[C@@H]5C[C@@H]5[C@]4(C)[C@H]3CC[C@@]21C [cyproterone acetate]	without success; also recorded: without any major improvement; also recorded: without any obvious effect on their OCD	effective	failed to demonstrate any effect	without any significant effects	–	–	–	–	–
triptorelin	–	–	–	–	dramatically better	all obsessive thoughts had disappeared	substantially recovered	began to feel better	accentuation of the patients OCD-symptoms
